Values of other authors in patent US20030096334A1, “Use of injectable dyes for staining an anterior lens capsule and vitreo-retinal interface” (priority 2001, published 2003).

Details: descriptive term only

- solubility in water: very soluble
Structure (SMILES): Cc1cc(-c2ccc(/N=N/c3ccc4c(S(=O)(=O)O)cc(S(=O)(=O)O)c(N)c4c3O)c(C)c2)ccc1/N=N/c1ccc2c(S(=O)(=O)O)cc(S(=O)(=O)O)c(N)c2c1O [Evans Blue, Tetrasodium 6.6′-[3,3′-dimethylbiphenyl-4,4′-diylbis(azo)]bis[4-amino-t-hydroxynaphthalene-1,3-disulphonate]]
